Test results reported in patent US20050232924A1, “Antibodies and/or conjugates thereof which bind to the amino terminal fragment of urokinase, compositions and uses thereof” (Attenuon LLC, priority 2003, published 2005).

What was measured:
[1] = tested on: MDA-MB-231 cells; experiment: MTT proliferation assay; assay type: cell-based, human; conditions: 10 μM; FIG. 13A
Procedure: The ability of ATN-291-Dox to inhibit proliferation of MDA-MB-231 cells was tested in an MTT assay. […] A dose titration was performed with the ATN-291-Dox conjugate. As shown in FIG. 10B the conjugate inhibited proliferation with an IC-50 of ˜1.6 μM.

[2] = tested on: MDA-MB-231 cells; experiment: Distribution of Dox by fluorescence microscopy; assay type: cell-based, human; conditions: 1.6 μM, 24 h; FIG. 14
Procedure: To further characterize the ATN-291-Dox conjugates the distribution of Dox was monitored by fluorescence microscopy. MDA-MB-231 cells grown on glass chamber slides were incubated with either 1.6 μM Dox or 1.6 μM ATN-291-Dox for 24 h under the same conditions used for the MTT assay. Following incubation, the supernatant was removed and the cells washed extensively with PBS. Cells were fixed in paraformaldehyde, mounted and observed by fluorescence microscopy.

Structure (SMILES): COc1cccc2c1C(=O)c1c(O)c3c(c(O)c1C2=O)C[C@@](O)(C(=O)CO)C[C@@H]3O[C@H]1C[C@H](N)[C@H](O)[C@H](C)O1 [Dox, doxorubicin]
- effect on cell proliferation [1]: significantly inhibited proliferation
- cellular localization of Dox fluorescence [2]: primarily localized to the nucleus of treated cells
